How the values were obtained:
HeLa cells = assay: MTT cell proliferation assay; type: cell-based; settings: 0-20 μM, 72 h
Pin1 = Pin1 (Homo sapiens, UniProt Q13526, S16A/Y23A); assay: Fluorescence anisotropy binding to Pin1

Pin1 inhibitory activity (Pin1): abolished the Pin1 inhibitory activity
Substance: bicyclo[Tm(D-Ala-Sar-D-Thr-D-Ala-Nal-Arg-Ala-D-Ala)-Dap-(Phe-Nal-Arg-Arg-Arg-Arg-Dap)]-Lys-NH2 [peptide 9]
Effect on HeLa cell growth (HeLa cells): no effect
